How the values were obtained:
Format in all cases: in vivo
Heliothis virescens = Heliothis virescens (tobacco budworm) egg/larval test on artificial diet; conditions: 96 h, application rate 200 ppm (concentration in well 18 ppm), eggs on artificial diet, 4 days
Protocol: Eggs (0-24 h old) were placed in 24-well microtiter plate on artificial diet and treated with test solutions at an application rate of 200 ppm (concentration in well 18 ppm) by pipetting. After an incubation period of 4 days, samples were checked for egg mortality, larval mortality, and growth regulation.

Diabrotica balteata = Diabrotica balteata (corn root worm) larval test on artificial diet; conditions: 120 h, application rate 200 ppm (concentration in well 18 ppm), L2 larvae on artificial diet, 5 days
Protocol: (§1) Diabrotica balteata (Corn Root Worm): A 24-well microtiter plate (MTP) with artificial diet was treated with test solutions at an application rate of 200 ppm (concentration in well 18 ppm) by pipetting. After drying, the MTP's were infested with L2 larvae (6-10 per well). After an incubation period of 5 days, samples were checked for larval mortality and growth regulation.

Thrips tabaci = Thrips tabaci (onion thrips) leaf disc test; conditions: foliar, 168 h, application rate 200 ppm, sunflower leaf discs, 7 days
Protocol: Sunflower leaf discs were placed on agar in a 24-well microtiter plate and sprayed with test solutions at an application rate of 200 ppm. After drying, the leaf discs were infested with a thrips population of mixed ages. After an incubation period of 7 days, samples were checked for mortality.

Spodoptera littoralis = Spodoptera littoralis (Egyptian cotton leafworm) leaf disc test; conditions: foliar, 72 h, application rate 200 ppm, cotton leaf discs, L1 larvae, mortality, feeding behavior, growth regulation 3 DAT
Source text: Spodoptera littoralis (Egyptian Cotton Leafworm): Cotton leaf discs were placed on agar in a 24-well microtiter plate and sprayed with test solutions at an application rate of 200 ppm. After drying, the leaf discs were infested with 5 L1 larvae. The samples were checked for mortality, feeding behavior, and growth regulation 3 days after treatment (DAT).

Tetranychus urticae = Tetranychus urticae (two-spotted spider mite) leaf disc test; conditions: foliar, 192 h, application rate 200 ppm, bean leaf discs, 8 days
Source text: Bean leaf discs on agar in 24-well microtiter plates were sprayed with test solutions at an application rate of 200 ppm. After drying, the leaf discs are infested with mite populations of mixed ages. 8 days later, discs are checked for egg mortality, larval mortality, and adult mortality.

Plutella xylostella = Plutella xylostella (diamond back moth) larval test on artificial diet; conditions: 144 h, application rate 200 ppm (concentration in well 18 ppm), L2 larvae on artificial diet, 6 days
Protocol: as §1, with “24-well” for “Diabrotica balteata (Corn Root Worm): A 24-well”, “(7-12” for “(6-10”, “6” for “5”

Myzus persicae = Myzus persicae (green peach aphid), systemic test; conditions: 144 h, application rate 12.5 ppm, roots of pea seedlings in test solution, 6 days
Source text: Myzus persicae (Green peach aphid), systemic test: Roots of pea seedlings, infested with an aphid population of mixed ages, are placed directly in the test solutions at an application rate of 12.5 ppm. 6 days after introduction, samples are checked for mortality and special effects on the plant. The following compounds gave at least 80% control of Myzus persicae: […]

O=C(CSc1ccc(C2=NOC(c3cc(Cl)cc(Cl)c3)(C(F)(F)F)C2)cc1Cl)NCC(F)(F)F (centres unmarked) [Compound A5, 2-{2-Chloro-4-[5-(3,5-Dichloro-phenyl)-5-trifluoromethyl-4,5-dihydro-isoxazol-3-yl]-phenylsulfanyl}-N-(2,2,2-trifluoro-ethyl)-acetamide]
≥ 80%: pest or weed control at 200 ppm (Heliothis virescens) | pest or weed control at 200 ppm (Diabrotica balteata) | pest or weed control at 200 ppm (Thrips tabaci) | pest or weed control at 200 ppm (Spodoptera littoralis) | pest or weed control at 200 ppm (Tetranychus urticae) | pest or weed control at 200 ppm (Plutella xylostella) | pest or weed control at 12.5 ppm (Myzus persicae)

O=C(CSc1ccc(C2=NOC(c3cc(Cl)cc(Cl)c3)(C(F)(F)F)C2)cc1Br)NCC(F)(F)F (centres unmarked) [Compound A29, 2-{2-bromo-4-[5-(3,5-dichloro-phenyl)-5-trifluoromethyl-4,5-dihydro-isoxazol-3-yl]-phenylsulfanyl}-N-(2,2,2-trifluoro-ethyl)-acetamide]
≥ 80%: pest or weed control at 200 ppm (Heliothis virescens) | pest or weed control at 200 ppm (Diabrotica balteata) | pest or weed control at 200 ppm (Thrips tabaci) | pest or weed control at 200 ppm (Spodoptera littoralis) | pest or weed control at 200 ppm (Tetranychus urticae) | pest or weed control at 200 ppm (Plutella xylostella) | pest or weed control at 12.5 ppm (Myzus persicae)

O=C(C[S+]([O-])c1ccc(C2=NOC(c3cc(Cl)cc(Cl)c3)(C(F)(F)F)C2)cc1Br)NCC(F)(F)F (centres unmarked) [Compound A52, 2-{2-Bromo-4-[5-(3,5-dichloro-phenyl)-5-trifluoromethyl-4,5-dihydro-isoxazol-3-yl]-benzenesulfinyl}-N-(2,2,2-trifluoro-ethyl)-acetamide]
≥ 80%: pest or weed control at 200 ppm (Heliothis virescens) | pest or weed control at 200 ppm (Diabrotica balteata) | pest or weed control at 200 ppm (Thrips tabaci) | pest or weed control at 200 ppm (Spodoptera littoralis) | pest or weed control at 200 ppm (Tetranychus urticae) | pest or weed control at 200 ppm (Plutella xylostella) | pest or weed control at 12.5 ppm (Myzus persicae)

O=C(CS(=O)(=O)c1ccc(C2=NOC(c3cc(Cl)cc(Cl)c3)(C(F)(F)F)C2)cc1Br)NCC(F)(F)F (centres unmarked) [Compound A53, 2-{2-Bromo-4-[5-(3,5-dichloro-phenyl)-5-trifluoromethyl-4,5-dihydro-isoxazol-3-yl]-benzenesulfonyl}-N-(2,2,2-trifluoro-ethyl)-acetamide]
≥ 80%: pest or weed control at 200 ppm (Heliothis virescens) | pest or weed control at 200 ppm (Diabrotica balteata) | pest or weed control at 200 ppm (Thrips tabaci) | pest or weed control at 200 ppm (Spodoptera littoralis) | pest or weed control at 200 ppm (Tetranychus urticae) | pest or weed control at 200 ppm (Plutella xylostella) | pest or weed control at 12.5 ppm (Myzus persicae)

N#CC1(NC(=O)C[S+]([O-])c2ccc(C3=NOC(c4cc(Cl)cc(Cl)c4)(C(F)(F)F)C3)cc2Cl)CC1 (centres unmarked) [Compound A56, 2-[2-chloro-4-[5-(3,5-dichlorophenyl)-5-(trifluoromethyl)-4H-isoxazol-3-yl]phenyl]sulfinyl-N-(1-cyanocyclopropyl)acetamide]
≥ 80%: pest or weed control at 200 ppm (Heliothis virescens) | pest or weed control at 200 ppm (Diabrotica balteata) | pest or weed control at 200 ppm (Thrips tabaci) | pest or weed control at 200 ppm (Spodoptera littoralis) | pest or weed control at 200 ppm (Tetranychus urticae) | pest or weed control at 200 ppm (Plutella xylostella) | pest or weed control at 12.5 ppm (Myzus persicae)

N#CC1(NC(=O)CSc2ccc(C3=NOC(c4cc(Cl)cc(Cl)c4)(C(F)(F)F)C3)cc2Cl)CC1 (centres unmarked) [Compound A60, 2-[2-chloro-4-[5-(3,5-dichlorophenyl)-5-(trifluoromethyl)-4H-isoxazol-3-yl]phenyl]sulfanyl-N-(1-cyanocyclopropyl)acetamide]
≥ 80%: pest or weed control at 200 ppm (Heliothis virescens) | pest or weed control at 200 ppm (Diabrotica balteata) | pest or weed control at 200 ppm (Thrips tabaci) | pest or weed control at 200 ppm (Spodoptera littoralis) | pest or weed control at 200 ppm (Tetranychus urticae) | pest or weed control at 200 ppm (Plutella xylostella) | pest or weed control at 12.5 ppm (Myzus persicae)

N#CC1(NC(=O)CS(=O)(=O)c2ccc(C3=NOC(c4cc(Cl)cc(Cl)c4)(C(F)(F)F)C3)cc2Cl)CC1 (centres unmarked) [Compound A61, 2-[2-chloro-4-[5-(3,5-dichlorophenyl)-5-(trifluoromethyl)-4H-isoxazol-3-yl]phenyl]sulfonyl-N-(1-cyanocyclopropyl)acetamide]
≥ 80%: pest or weed control at 200 ppm (Heliothis virescens) | pest or weed control at 200 ppm (Diabrotica balteata) | pest or weed control at 200 ppm (Thrips tabaci) | pest or weed control at 200 ppm (Spodoptera littoralis) | pest or weed control at 200 ppm (Tetranychus urticae) | pest or weed control at 200 ppm (Plutella xylostella)

O=C(CSc1ccc(C2=NCC(c3cc(Cl)cc(Cl)c3)(C(F)(F)F)C2)cc1Cl)NCC(F)(F)F (centres unmarked) [Compound B1, 2-{2-Chloro-4-[4-(3,5-dichloro-phenyl)-4-trifluoromethyl-4,5-dihydro-3H-pyrrol-2-yl]-phenylsulfanyl}-N-(2,2,2-trifluoro-ethyl)-acetamide]
≥ 80%: pest or weed control at 200 ppm (Heliothis virescens) | pest or weed control at 200 ppm (Diabrotica balteata) | pest or weed control at 200 ppm (Thrips tabaci) | pest or weed control at 200 ppm (Spodoptera littoralis) | pest or weed control at 200 ppm (Tetranychus urticae) | pest or weed control at 200 ppm (Plutella xylostella) | pest or weed control at 12.5 ppm (Myzus persicae)

O=C(C[S+]([O-])c1ccc(C2=NCC(c3cc(Cl)cc(Cl)c3)(C(F)(F)F)C2)cc1Cl)NCC(F)(F)F (centres unmarked) [Compound B2, 2-{2-Chloro-4-[4-(3,5-dichloro-phenyl)-4-trifluoromethyl-4,5-dihydro-3H-pyrrol-2-yl]-benzenesulfinyl}-N-(2,2,2-trifluoro-ethyl)-acetamide]
≥ 80%: pest or weed control at 200 ppm (Heliothis virescens) | pest or weed control at 200 ppm (Diabrotica balteata) | pest or weed control at 200 ppm (Thrips tabaci) | pest or weed control at 200 ppm (Spodoptera littoralis) | pest or weed control at 200 ppm (Tetranychus urticae) | pest or weed control at 200 ppm (Plutella xylostella) | pest or weed control at 12.5 ppm (Myzus persicae)

O=C(CS(=O)(=O)c1ccc(C2=NCC(c3cc(Cl)cc(Cl)c3)(C(F)(F)F)C2)cc1Cl)NCC(F)(F)F (centres unmarked) [Compound B3, 2-{2-chloro-4-[4-(3,5-Dichloro-phenyl)-4-trifluoromethyl-4,5-dihydro-3H-pyrrol-2-yl]-benzenesulfonyl}-N-(2,2,2-trifluoro-ethyl)-acetamide]
≥ 80%: pest or weed control at 200 ppm (Heliothis virescens) | pest or weed control at 200 ppm (Diabrotica balteata) | pest or weed control at 200 ppm (Thrips tabaci) | pest or weed control at 200 ppm (Spodoptera littoralis) | pest or weed control at 200 ppm (Tetranychus urticae) | pest or weed control at 200 ppm (Plutella xylostella) | pest or weed control at 12.5 ppm (Myzus persicae)

Cc1cc(C2=NO[C@@](c3cc(Cl)cc(Cl)c3)(C(F)(F)F)C2)ccc1SCC(=O)NCC(F)(F)F [Compound C4, 2-{4-[(S)-5-(3,5-Dichloro-phenyl)-5-trifluoromethyl-4,5-dihydro-isoxazol-3-yl]-2-methyl-phenylsulfanyl}-N-(2,2,2-trifluoro-ethyl)-acetamide]
≥ 80%: pest or weed control at 200 ppm (Diabrotica balteata) | pest or weed control at 200 ppm (Spodoptera littoralis)

O=C(C[S+]([O-])c1ccc(C2=NO[C@@](c3cc(Cl)c(Cl)c(Cl)c3)(C(F)(F)F)C2)cc1Cl)NC1CC1 (stereo partly drawn) [Compound D5, 2-[2-chloro-4-[(5S)-5-(3,4,5-trichlorophenyl)-5-(trifluoromethyl)-4H-isoxazol-3-yl]phenyl]sulfinyl-N-cyclopropyl-acetamide]
≥ 80%: pest or weed control at 12.5 ppm (Myzus persicae)

O=C(CS(=O)(=O)c1ccc(C2=NO[C@@](c3cc(Cl)c(Cl)c(Cl)c3)(C(F)(F)F)C2)cc1Cl)NC1CC1 [Compound D6, 2-[2-chloro-4-[(5S)-5-(3,4,5-trichlorophenyl)-5-(trifluoromethyl)-4H-isoxazol-3-yl]phenyl]sulfonyl-N-cyclopropyl-acetamide]
≥ 80%: pest or weed control at 12.5 ppm (Myzus persicae)

Cc1cc(C2=NOC(c3cc(Cl)cc(Cl)c3)(C(F)(F)F)C2)cnc1SCC(=O)NC1CC1 (centres unmarked) [Compound F1, N-cyclopropyl-2-[[5-[5-(3,5-dichlorophenyl)-5-(trifluoromethyl)-4H-isoxazol-3-yl]-3-methyl-2-pyridyl]sulfanyl]acetamide]
≥ 80%: pest or weed control at 200 ppm (Heliothis virescens) | pest or weed control at 200 ppm (Diabrotica balteata) | pest or weed control at 200 ppm (Spodoptera littoralis) | pest or weed control at 200 ppm (Tetranychus urticae) | pest or weed control at 200 ppm (Plutella xylostella)

Cc1cc(C2=NOC(c3cc(Cl)cc(Cl)c3)(C(F)(F)F)C2)ncc1SCC(=O)NC1CC1 (centres unmarked) [Compound F2, N-cyclopropyl-2-[[6-[5-(3,5-dichlorophenyl)-5-(trifluoromethyl)-4H-isoxazol-3-yl]-4-methyl-3-pyridyl]sulfanyl]acetamide]
≥ 80%: pest or weed control at 200 ppm (Heliothis virescens) | pest or weed control at 200 ppm (Diabrotica balteata) | pest or weed control at 200 ppm (Spodoptera littoralis) | pest or weed control at 200 ppm (Plutella xylostella) | pest or weed control at 12.5 ppm (Myzus persicae)

Reference: patent US8895587B2, “Insecticidal compounds based on arylthioacetamide derivatives” (Syngenta Participations AG, priority 2011, dated 2014)
